# Assays:
# [1] = system: β-Glucosidase derived from almond; experiment: Reactivity toward various isoflavone glycosides (HPLC); assay type: biochemical; set-up: unit not given here; details: 55 °C, pH 4.0
# Method in brief: (§1)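 Enzymes at 0.75 AU/mL in pH 4.0 acetate buffer were reacted at 55° C with individual isoflavone glycosides (substrate stock 2 mM in methanol) in 20 mM acetate pH 4.0. Aglycone release followed at 0, 1, 3 and 6 h: ethanol-quenched, ODS HPLC with UV 260 nm, quantified against calibration curves.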
# [2] = system: β-Xylosidase derived from pectinase G; experiment: as above; assay type: biochemical; set-up: unit not given here; details: 55 °C, pH 4.0
# Method in brief: as §1
# [3] = system: Crude diglycosidase; experiment: Examination of substrate concentration in the conversion into isoflavone aglycons by diglycosidase using soybean materials; assay type: biochemical, Penicillium multicolor IAM7153;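 on Decomposition efficiency: ratio of each glycoside/aglycon within its isoflavone family: percent of the isoflavone family total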
# Method in brief: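 Soybean materials (roasted soy flour, soymilk, defatted soybean, concentrated soy protein) at 2–30% (w/v) in 20 mM acetate pH 4.0 were reacted with crude diglycosidase at 55° C with shaking; enzyme solution added was 1.88 AU/mL. Samples taken at 0, 1, 3 and 6 h were ethanol-extracted and analyzed by HPLC.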
smiles,measurement,setting,value
"O=C(O)CC(=O)OC[C@H]1O[C@@H](Oc2ccc3c(=O)c(-c4ccc(O)cc4)coc3c2)[C@H](O)[C@@H](O)[C@@H]1O [malonyldaidzin, 6″-O-malonyldaidzin]",aglycon,[1]; Reaction time 0 h,0
same,glucoside,[1]; Reaction time 0 h,100
same,aglycon,[1]; Reaction time 1 h,0
same,glucoside,[1]; Reaction time 1 h,100
same,aglycon,[1]; Reaction time 3 h,0
same,glucoside,[1]; Reaction time 3 h,100
same,aglycon,[1]; Reaction time 6 h,0
same,glucoside,[1]; Reaction time 6 h,100
same,aglycon,[2]; Reaction time 0 h,0
same,glucoside,[2]; Reaction time 0 h,100
same,aglycon,[2]; Reaction time 1 h,0.4
same,glucoside,[2]; Reaction time 1 h,99.6
same,aglycon,[2]; Reaction time 3 h,1.6
same,glucoside,[2]; Reaction time 3 h,98.4
same,aglycon,[2]; Reaction time 6 h,3.3
same,glucoside,[2]; Reaction time 6 h,96.7
same,Decomposition efficiency: ratio of each glycoside/aglycon within its isoflavone family,"[3]; roasted soy flour, substrate concentration 2%, heat treatment of enzyme no, reaction time 0 h",not detected
same,Decomposition efficiency: ratio of each glycoside/aglycon within its isoflavone family,"[3]; roasted soy flour, substrate concentration 2%, heat treatment of enzyme no, reaction time 1 h",not detected
same,Decomposition efficiency: ratio of each glycoside/aglycon within its isoflavone family,"[3]; roasted soy flour, substrate concentration 2%, heat treatment of enzyme no, reaction time 3 h",not detected
same,Decomposition efficiency: ratio of each glycoside/aglycon within its isoflavone family,"[3]; roasted soy flour, substrate concentration 2%, heat treatment of enzyme no, reaction time 6 h",not detected
same,Decomposition efficiency: ratio of each glycoside/aglycon within its isoflavone family,"[3]; roasted soy flour, substrate concentration 2%, heat treatment of enzyme yes, reaction time 6 h",not detected
same,Decomposition efficiency: ratio of each glycoside/aglycon within its isoflavone family,"[3]; roasted soy flour, substrate concentration 5%, heat treatment of enzyme no, reaction time 0 h",not detected
same,Decomposition efficiency: ratio of each glycoside/aglycon within its isoflavone family,"[3]; roasted soy flour, substrate concentration 5%, heat treatment of enzyme no, reaction time 1 h",not detected
same,Decomposition efficiency: ratio of each glycoside/aglycon within its isoflavone family,"[3]; roasted soy flour, substrate concentration 5%, heat treatment of enzyme no, reaction time 3 h",not detected
same,Decomposition efficiency: ratio of each glycoside/aglycon within its isoflavone family,"[3]; roasted soy flour, substrate concentration 5%, heat treatment of enzyme no, reaction time 6 h",not detected
same,Decomposition efficiency: ratio of each glycoside/aglycon within its isoflavone family,"[3]; roasted soy flour, substrate concentration 5%, heat treatment of enzyme yes, reaction time 6 h",not detected
same,Decomposition efficiency: ratio of each glycoside/aglycon within its isoflavone family,"[3]; roasted soy flour, substrate concentration 10%, heat treatment of enzyme no, reaction time 0 h",not detected
same,Decomposition efficiency: ratio of each glycoside/aglycon within its isoflavone family,"[3]; roasted soy flour, substrate concentration 10%, heat treatment of enzyme no, reaction time 1 h",not detected
same,Decomposition efficiency: ratio of each glycoside/aglycon within its isoflavone family,"[3]; roasted soy flour, substrate concentration 10%, heat treatment of enzyme no, reaction time 3 h",not detected
same,Decomposition efficiency: ratio of each glycoside/aglycon within its isoflavone family,"[3]; roasted soy flour, substrate concentration 10%, heat treatment of enzyme no, reaction time 6 h",not detected
same,Decomposition efficiency: ratio of each glycoside/aglycon within its isoflavone family,"[3]; roasted soy flour, substrate concentration 10%, heat treatment of enzyme yes, reaction time 6 h",not detected
same,Decomposition efficiency: ratio of each glycoside/aglycon within its isoflavone family,"[3]; roasted soy flour, substrate concentration 20%, heat treatment of enzyme no, reaction time 0 h",not detected
same,Decomposition efficiency: ratio of each glycoside/aglycon within its isoflavone family,"[3]; roasted soy flour, substrate concentration 20%, heat treatment of enzyme no, reaction time 1 h",not detected
same,Decomposition efficiency: ratio of each glycoside/aglycon within its isoflavone family,"[3]; roasted soy flour, substrate concentration 20%, heat treatment of enzyme no, reaction time 3 h",not detected
same,Decomposition efficiency: ratio of each glycoside/aglycon within its isoflavone family,"[3]; roasted soy flour, substrate concentration 20%, heat treatment of enzyme no, reaction time 6 h",not detected
same,Decomposition efficiency: ratio of each glycoside/aglycon within its isoflavone family,"[3]; roasted soy flour, substrate concentration 20%, heat treatment of enzyme yes, reaction time 6 h",not detected
same,Decomposition efficiency: ratio of each glycoside/aglycon within its isoflavone family,"[3]; roasted soy flour, substrate concentration 30%, heat treatment of enzyme no, reaction time 0 h",not detected
same,Decomposition efficiency: ratio of each glycoside/aglycon within its isoflavone family,"[3]; roasted soy flour, substrate concentration 30%, heat treatment of enzyme no, reaction time 1 h",not detected
same,Decomposition efficiency: ratio of each glycoside/aglycon within its isoflavone family,"[3]; roasted soy flour, substrate concentration 30%, heat treatment of enzyme no, reaction time 3 h",not detected
same,Decomposition efficiency: ratio of each glycoside/aglycon within its isoflavone family,"[3]; roasted soy flour, substrate concentration 30%, heat treatment of enzyme no, reaction time 6 h",not detected
same,Decomposition efficiency: ratio of each glycoside/aglycon within its isoflavone family,"[3]; roasted soy flour, substrate concentration 30%, heat treatment of enzyme yes, reaction time 6 h",not detected
same,Decomposition efficiency: ratio of each glycoside/aglycon within its isoflavone family,"[3]; soymilk, substrate concentration 2%, heat treatment of enzyme no, reaction time 0 h",32.2%
same,Decomposition efficiency: ratio of each glycoside/aglycon within its isoflavone family,"[3]; soymilk, substrate concentration 2%, heat treatment of enzyme no, reaction time 1 h",27.5%
same,Decomposition efficiency: ratio of each glycoside/aglycon within its isoflavone family,"[3]; soymilk, substrate concentration 2%, heat treatment of enzyme no, reaction time 3 h",9.9%
same,Decomposition efficiency: ratio of each glycoside/aglycon within its isoflavone family,"[3]; soymilk, substrate concentration 2%, heat treatment of enzyme no, reaction time 6 h",2.9%
same,Decomposition efficiency: ratio of each glycoside/aglycon within its isoflavone family,"[3]; soymilk, substrate concentration 2%, heat treatment of enzyme yes, reaction time 6 h",47.0%
same,Decomposition efficiency: ratio of each glycoside/aglycon within its isoflavone family,"[3]; soymilk, substrate concentration 5%, heat treatment of enzyme no, reaction time 0 h",53.6%
same,Decomposition efficiency: ratio of each glycoside/aglycon within its isoflavone family,"[3]; soymilk, substrate concentration 5%, heat treatment of enzyme no, reaction time 1 h",34.2%
same,Decomposition efficiency: ratio of each glycoside/aglycon within its isoflavone family,"[3]; soymilk, substrate concentration 5%, heat treatment of enzyme no, reaction time 3 h",15.9%
same,Decomposition efficiency: ratio of each glycoside/aglycon within its isoflavone family,"[3]; soymilk, substrate concentration 5%, heat treatment of enzyme no, reaction time 6 h",6.1%
same,Decomposition efficiency: ratio of each glycoside/aglycon within its isoflavone family,"[3]; soymilk, substrate concentration 5%, heat treatment of enzyme yes, reaction time 6 h",47.6%
same,Decomposition efficiency: ratio of each glycoside/aglycon within its isoflavone family,"[3]; soymilk, substrate concentration 10%, heat treatment of enzyme no, reaction time 0 h",53.4%
same,Decomposition efficiency: ratio of each glycoside/aglycon within its isoflavone family,"[3]; soymilk, substrate concentration 10%, heat treatment of enzyme no, reaction time 1 h",37.4%
same,Decomposition efficiency: ratio of each glycoside/aglycon within its isoflavone family,"[3]; soymilk, substrate concentration 10%, heat treatment of enzyme no, reaction time 3 h",20.5%
same,Decomposition efficiency: ratio of each glycoside/aglycon within its isoflavone family,"[3]; soymilk, substrate concentration 10%, heat treatment of enzyme no, reaction time 6 h",10.7%
same,Decomposition efficiency: ratio of each glycoside/aglycon within its isoflavone family,"[3]; soymilk, substrate concentration 10%, heat treatment of enzyme yes, reaction time 6 h",47.8%
same,Decomposition efficiency: ratio of each glycoside/aglycon within its isoflavone family,"[3]; soymilk, substrate concentration 20%, heat treatment of enzyme no, reaction time 0 h",53.6%
same,Decomposition efficiency: ratio of each glycoside/aglycon within its isoflavone family,"[3]; soymilk, substrate concentration 20%, heat treatment of enzyme no, reaction time 1 h",41.2%
same,Decomposition efficiency: ratio of each glycoside/aglycon within its isoflavone family,"[3]; soymilk, substrate concentration 20%, heat treatment of enzyme no, reaction time 3 h",21.5%
same,Decomposition efficiency: ratio of each glycoside/aglycon within its isoflavone family,"[3]; soymilk, substrate concentration 20%, heat treatment of enzyme no, reaction time 6 h",16.4%
same,Decomposition efficiency: ratio of each glycoside/aglycon within its isoflavone family,"[3]; soymilk, substrate concentration 20%, heat treatment of enzyme yes, reaction time 6 h",48.1%
same,Decomposition efficiency: ratio of each glycoside/aglycon within its isoflavone family,"[3]; soymilk, substrate concentration 30%, heat treatment of enzyme no, reaction time 0 h",53.5%
same,Decomposition efficiency: ratio of each glycoside/aglycon within its isoflavone family,"[3]; soymilk, substrate concentration 30%, heat treatment of enzyme no, reaction time 1 h",43.8%
same,Decomposition efficiency: ratio of each glycoside/aglycon within its isoflavone family,"[3]; soymilk, substrate concentration 30%, heat treatment of enzyme no, reaction time 3 h",29.7%
same,Decomposition efficiency: ratio of each glycoside/aglycon within its isoflavone family,"[3]; soymilk, substrate concentration 30%, heat treatment of enzyme no, reaction time 6 h",21.9%
same,Decomposition efficiency: ratio of each glycoside/aglycon within its isoflavone family,"[3]; soymilk, substrate concentration 30%, heat treatment of enzyme yes, reaction time 6 h",46.9%
same,Decomposition efficiency of daidzin family in defatted soybean,"[3]; substrate concentration 2%, heat treatment of enzyme no, reaction time 0 h",42.2
same,Decomposition efficiency of daidzin family in defatted soybean,"[3]; substrate concentration 2%, heat treatment of enzyme no, reaction time 1 h",35.2
same,Decomposition efficiency of daidzin family in defatted soybean,"[3]; substrate concentration 2%, heat treatment of enzyme no, reaction time 3 h",21.2
same,Decomposition efficiency of daidzin family in defatted soybean,"[3]; substrate concentration 2%, heat treatment of enzyme no, reaction time 6 h",16.5
same,Decomposition efficiency of daidzin family in defatted soybean,"[3]; substrate concentration 2%, heat treatment of enzyme yes, reaction time 6 h",38.1
same,Decomposition efficiency of daidzin family in defatted soybean,"[3]; substrate concentration 5%, heat treatment of enzyme no, reaction time 0 h",41.1
same,Decomposition efficiency of daidzin family in defatted soybean,"[3]; substrate concentration 5%, heat treatment of enzyme no, reaction time 1 h",37.7
same,Decomposition efficiency of daidzin family in defatted soybean,"[3]; substrate concentration 5%, heat treatment of enzyme no, reaction time 3 h",30.6
same,Decomposition efficiency of daidzin family in defatted soybean,"[3]; substrate concentration 5%, heat treatment of enzyme no, reaction time 6 h",21.0
same,Decomposition efficiency of daidzin family in defatted soybean,"[3]; substrate concentration 5%, heat treatment of enzyme yes, reaction time 6 h",38.1
same,Decomposition efficiency of daidzin family in defatted soybean,"[3]; substrate concentration 10%, heat treatment of enzyme no, reaction time 0 h",39.7
same,Decomposition efficiency of daidzin family in defatted soybean,"[3]; substrate concentration 10%, heat treatment of enzyme no, reaction time 1 h",39.5
same,Decomposition efficiency of daidzin family in defatted soybean,"[3]; substrate concentration 10%, heat treatment of enzyme no, reaction time 3 h",34.2
same,Decomposition efficiency of daidzin family in defatted soybean,"[3]; substrate concentration 10%, heat treatment of enzyme no, reaction time 6 h",29.0
same,Decomposition efficiency of daidzin family in defatted soybean,"[3]; substrate concentration 10%, heat treatment of enzyme yes, reaction time 6 h",37.0

# Reference: patent US7118895B2, “Process for producing aglycon by using diglycosidase and flavor-improved food containing the aglycon and converting agent to be used in the process” (Amano Enzyme Inc., priority 2000, dated 2006)
